According to patent publication US10201564B2, “Methods of using inhaled nitric oxide gas for treatment of acute respiratory distress syndrome in children” (Mallinckrodt Hospital Products IP Limited, priority 2014, dated 2019):

Test system: pediatric subjects with acute hypoxemic respiratory failure (AHRF)
Assay: Pediatric AHRF study: adverse events, serious adverse events, deaths, discontinuations
Type: in vivo, human
Protocol: This was a prospective, multicenter, randomized, double-blind, placebo-controlled, parallel-group study of the safety and efficacy of inhaled nitric oxide in pediatric subjects with acute hypoxemic respiratory failure (AHRF). The subjects were randomized to receive either 5 ppm inhaled nitric oxide or placebo.
Nitric Oxide for inhalation at 5 ppm was administered continuously into the inspiratory limb of the ventilator circuit in mechanically ventilated subjects using a blinded version of the INOvent® delivery system.
Subjects received 100% treatment gas (nitric oxide 5 ppm or placebo [nitrogen gas]) until Day 28 or extubation, whichever occurred first.
This was a prospective, multicenter, randomized, double-blind, placebo-controlled, Phase III study to assess the effects of nitric oxide for inhalation in the treatment of acute hypoxic respiratory failure (AHRF) in pediatric subjects. The study population consisted of male and female pediatric subjects, aged 44 weeks postconceptional age to 16 years age, who were admitted to the pediatric intensive care unit (PICU) and who required intubation because of AHRF. The inclusion/exclusion criteria are described in the Patients section below.
Standardized ventilatory management and weaning procedures were used. Ventilatory management was used based on an “open lung approach” using positive end-expiratory pressure (PEEP) to increase lung volume and limiting tidal volumes to reduce plateau pressures. Subjects received nitric oxide for inhalation at 5 ppm or placebo (100% Grade 5 nitrogen gas) into the inspiratory limb of the ventilator circuit using a blinded version of the INOvent® delivery system. The subjects were treated until Day 28 or extubation, whichever occurred first. Subjects were assessed daily using a spontaneous breathing trial, according to the institution's standard of care. Arterial blood gases (ABG), ventilator settings, methemoglobin, oxygenation index, systolic blood pressure, diastolic blood pressure, Pediatric Risk of Mortality (PRISM) III score, and subject positioning (prone or supine) were performed/recorded at specified times during the study. Selected centers also performed plasma cytokine assays, bronchoalveolar lavage fluid (BALF) assays, and a 6-month follow-up assessment.

[1] = 5 ppm, relationship to study treatment Suspected

[N]=O [Nitric Oxide, nitric oxide]
Serious adverse event: Hypotension, subjects n (%) [1]: 0 (0.0)
Serious adverse event: Hypoxia, subjects n (%) [1]: 0 (0.0)
Serious adverse event: Intracranial pressure increased, subjects n (%) [1]: 0 (0.0)
Serious adverse event: Multi-organ failure, subjects n (%) [1]: 0 (0.0)
Serious adverse event: Pancreatitis, subjects n (%) [1]: 0 (0.0)
Serious adverse event: Pneumonia, aspergillus, subjects n (%) [1]: 0 (0.0)
Serious adverse event: Pulmonary hemorrhage, subjects n (%) [1]: 0 (0.0)
Serious adverse event: Renal failure, acute, subjects n (%) [1]: 0 (0.0)
Serious adverse event: Renal failure, subjects n (%) [1]: 0 (0.0)
Serious adverse event: Renal impairment, subjects n (%) [1]: 0 (0.0)
Serious adverse event: Respiratory failure, subjects n (%) [1]: 0 (0.0)
Serious adverse event: Sepsis, subjects n (%) [1]: 0 (0.0)
Serious adverse event: Subdural hematoma, subjects n (%) [1]: 0 (0.0)
Serious adverse event: Unevaluable event, subjects n (%) [1]: 0 (0.0)
Abdominal distension (5 ppm, subjects with AE): 0 (0.0) n (%)
Acidosis (5 ppm, subjects with AE): 1 (3.8%) n (%)
Agitation (5 ppm, subjects with AE): 2 (7.7%) n (%)
Anemia (5 ppm, subjects with AE): 1 (3.8%) n (%)
Apnea (5 ppm, subjects with AE): 1 (3.8%) n (%)
Arrhythmia (5 ppm, subjects with AE): 1 (3.8%) n (%)
Ascites (5 ppm, subjects with AE): 1 (3.8%) n (%)
Bacteremia (5 ppm, subjects with AE): 2 (7.7%) n (%)
Bacteria, blood (5 ppm, subjects with AE): 1 (3.8%) n (%)
Bacteria, sputum (5 ppm, subjects with AE): 0 (0.0) n (%)
Bladder distension (5 ppm, subjects with AE): 0 (0.0) n (%)
Brain edema (5 ppm, subjects with AE): 0 (0.0) n (%)
Bronchoalveolar lavage (5 ppm, subjects with AE): 1 (3.8%) n (%)
C-reactive protein increased (5 ppm, subjects with AE): 0 (0.0) n (%)
Cardiac arrest (5 ppm, subjects with AE): 0 (0.0) n (%)
Cerebral artery occlusion (5 ppm, subjects with AE): 0 (0.0) n (%)
Chest tube insertion (5 ppm, subjects with AE): 1 (3.8%) n (%)
Deep vein thrombosis (5 ppm, subjects with AE): 2 (7.7%) n (%)
Device failure (5 ppm, subjects with AE): 0 (0.0) n (%)
Diabetic ketoacidosis (5 ppm, subjects with AE): 0 (0.0) n (%)
Diarrhea (5 ppm, subjects with AE): 0 (0.0) n (%)
Disseminated intravascular coagulation (5 ppm, subjects with AE): 0 (0.0) n (%)
Empyema (5 ppm, subjects with AE): 0 (0.0) n (%)
Feeding disorder (5 ppm, subjects with AE): 0 (0.0) n (%)
Fungemia (5 ppm, subjects with AE): 1 (3.8%) n (%)
Fungus culture positive (5 ppm, subjects with AE): 0 (0.0) n (%)
Fungus urine test positive (5 ppm, subjects with AE): 0 (0.0) n (%)
Gangrene (5 ppm, subjects with AE): 1 (3.8%) n (%)
Gastrointestinal hemorrhage (5 ppm, subjects with AE): 0 (0.0) n (%)
Generalized edema (5 ppm, subjects with AE): 0 (0.0) n (%)
Hematuria (5 ppm, subjects with AE): 0 (0.0) n (%)
Hemoglobinemia (5 ppm, subjects with AE): 1 (3.8%) n (%)
Hemolytic anemia (5 ppm, subjects with AE): 0 (0.0) n (%)
Hemopneumothorax (5 ppm, subjects with AE): 0 (0.0) n (%)
Hemorrhage (5 ppm, subjects with AE): 0 (0.0) n (%)
Hemothorax (5 ppm, subjects with AE): 0 (0.0) n (%)
Hepatic failure (5 ppm, subjects with AE): 0 (0.0) n (%)
Hepatosplenomegaly (5 ppm, subjects with AE): 1 (3.8%) n (%)
Hyperammonemia (5 ppm, subjects with AE): 0 (0.0) n (%)
Hypercalcemia (5 ppm, subjects with AE): 1 (3.8%) n (%)
Hypercapnia (5 ppm, subjects with AE): 0 (0.0) n (%)
Hyperchloremia (5 ppm, subjects with AE): 1 (3.8%) n (%)
Hyperglycemia (5 ppm, subjects with AE): 1 (3.8%) n (%)
Hyperkalemia (5 ppm, subjects with AE): 1 (3.8%) n (%)
Hyperlipidemia (5 ppm, subjects with AE): 0 (0.0) n (%)
Hypernatremia (5 ppm, subjects with AE): 2 (7.7%) n (%)
Hypertension (5 ppm, subjects with AE): 0 (0.0) n (%)
Hypocalcemia (5 ppm, subjects with AE): 1 (3.8%) n (%)
Hypochloremia (5 ppm, subjects with AE): 0 (0.0) n (%)
Hypothermia (5 ppm, subjects with AE): 0 (0.0) n (%)
Hypoxia (5 ppm, subjects with AE): 0 (0.0) n (%)
Intracranial pressure increased (5 ppm, subjects with AE): 0 (0.0) n (%)
Labile blood pressure (5 ppm, subjects with AE): 0 (0.0) n (%)
Leukocytosis (5 ppm, subjects with AE): 1 (3.8%) n (%)
Lung infection, pseudomonal (5 ppm, subjects with AE): 0 (0.0) n (%)
Medical device removal (5 ppm, subjects with AE): 0 (0.0) n (%)
Metabolic acidosis (5 ppm, subjects with AE): 0 (0.0) n (%)
Metabolic alkalosis (5 ppm, subjects with AE): 1 (3.8%) n (%)
Multi-organ failure (5 ppm, subjects with AE): 0 (0.0) n (%)
Ocular icterus (5 ppm, subjects with AE): 0 (0.0) n (%)
Oliguria (5 ppm, subjects with AE): 0 (0.0) n (%)
Oxygen saturation decreased (5 ppm, subjects with AE): 2 (7.7%) n (%)
Pancreatitis (5 ppm, subjects with AE): 0 (0.0) n (%)
Pleural effusion (5 ppm, subjects with AE): 0 (0.0) n (%)
Pneumomediastinum (5 ppm, subjects with AE): 0 (0.0) n (%)
Pneumonia (5 ppm, subjects with AE): 1 (3.8%) n (%)
Pneumonia, aspergillus (5 ppm, subjects with AE): 0 (0.0) n (%)
Pneumonia, staphylococcal (5 ppm, subjects with AE): 1 (3.8%) n (%)
Pruritus (5 ppm, subjects with AE): 0 (0.0) n (%)
Pseudomonal sepsis (5 ppm, subjects with AE): 1 (3.8%) n (%)
Pulmonary hemorrhage (5 ppm, subjects with AE): 0 (0.0) n (%)
Pulmonary hypertension (5 ppm, subjects with AE): 0 (0.0) n (%)
Pyrexia (5 ppm, subjects with AE): 0 (0.0) n (%)
Renal failure (5 ppm, subjects with AE): 1 (3.8%) n (%)
Renal failure, acute (5 ppm, subjects with AE): 0 (0.0) n (%)
Renal impairment (5 ppm, subjects with AE): 0 (0.0) n (%)
Respiratory acidosis (5 ppm, subjects with AE): 0 (0.0) n (%)
Sepsis (5 ppm, subjects with AE): 0 (0.0) n (%)
Skin injury (5 ppm, subjects with AE): 0 (0.0) n (%)
Subdural hematoma (5 ppm, subjects with AE): 0 (0.0) n (%)
Thrombocythemia (5 ppm, subjects with AE): 1 (3.8%) n (%)
Thrombocytopenia (5 ppm, subjects with AE): 0 (0.0) n (%)
Tracheitis (5 ppm, subjects with AE): 2 (7.7%) n (%)
Unevaluable event (5 ppm, subjects with AE): 2 (7.7%) n (%)
Urinary tract infection (5 ppm, subjects with AE): 1 (3.8%) n (%)
Urinary tract infection, fungal (5 ppm, subjects with AE): 1 (3.8%) n (%)
Urine output decreased (5 ppm, subjects with AE): 1 (3.8%) n (%)
White blood cell count increased (5 ppm, subjects with AE): 0 (0.0) n (%)
AE in which death was the outcome, subject 2001A (died after the treatment period): No AE listed in which death was the outcome
AE in which death was the outcome, subject 2007 (donor two): No AE listed in which death was the outcome
relationship of deaths, serious AEs, severe AEs and AEs resulting in discontinuation to study treatment (in words): No death, serious AE, severe AE, or AE resulting in treatment discontinuation was suspected to be related to study treatment
SAE (identification of subjects with serious adverse events) (subject 3003 (person one), nitric oxide group): Bradycardia, hypotension
Action/Reported Outcome of SAE (subject 3003 (person one), nitric oxide group, DC = discontinued treatment): DC/death
